For eight molecules, IC50 results are on record in patent publication US10745382B2 (BRISTOL-MYERS SQUIBB COMPANY, priority 2015, dated 2020).

For the assay, the target named is T1, PD-1/PD-L1 (Homo sapiens, UniProt Q9NZQ7).
T1 construct: made in house; host or cells: HEK293T
T1 sequence (Q9NZQ7 with tags, fused parts or gaps): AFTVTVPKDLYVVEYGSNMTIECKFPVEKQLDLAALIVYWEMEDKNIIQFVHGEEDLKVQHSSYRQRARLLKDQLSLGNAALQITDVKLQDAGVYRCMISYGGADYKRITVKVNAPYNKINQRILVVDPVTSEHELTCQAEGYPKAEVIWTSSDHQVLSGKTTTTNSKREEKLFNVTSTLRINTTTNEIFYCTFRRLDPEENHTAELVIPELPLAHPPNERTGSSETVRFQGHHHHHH
In words: PD-1/PD-L1 Homogenous Time-Resolved Fluorescence (HTRF) binding assay. As to conditions: PD-L1-His 10 nM, PD-1-Ig 20 nM; value given as range class; read-out: Range or IC50. The gist of the method:
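Binding was measured by HTRF in dPBS with 0.1% BSA and 0.05% Tween-20. Detection used europium cryptate anti-Ig (1 nM final) and APC anti-His (20 nM final) added over the binding reaction.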
On to `CC(=O)NC1CCN(CCCOc2cccc(-c3cccc(COc4cc(OCc5cncc(C#N)c5)c(CN[C@](C)(CO)C(=O)O)cc4Cl)c3C)c2Cl)CC1` [Example 1079, (R)-2-((4-((3′-(3-(4-acetamidopiperidin-1-yl)propoxy)-2′-chloro-2-methyl-[1,1′-biphenyl]-3-yl)methoxy)-5-chloro-2-((5-cyanopyridin-3-yl)methoxy)benzyl)amino)-3-hydroxy-2-methylpropanoic Acid], for which the IC50 was in the range of 0.21 to 10 nM.

As for `Cc1c(COc2cc(OCc3cncc(C#N)c3)c(CN[C@H](CO)C(=O)O)cc2Cl)cccc1-c1cccc(OCCCN2CC(O)C2)c1C` [Example 1080, (R)-2-((5-chloro-2-((5-cyanopyridin-3-yl)methoxy)-4-((3′-(3-(3-hydroxyazetidin-1-yl)propoxy)-2,2′-dimethyl-[1,1′-biphenyl]-3-yl)methoxy)benzyl)amino)-3-hydroxypropanoic Acid], the half-inhibitory concentration (IC50) is 0.21 to 10 nM.

`Cc1c(COc2cc(OCc3cncc(S(C)(=O)=O)c3)c(CN3CCCC[C@H]3C(=O)O)cc2Cl)cccc1-c1cccc(OCCCN2C[C@H](O)C[C@H]2C(=O)O)c1Cl` [Example 1081, (S)-1-(4-((3′-(3-((2S,4R)-2-carboxy-4-hydroxypyrrolidin-1-yl)propoxy)-2′-chloro-2-methyl-[1,1′-biphenyl]-3-yl)methoxy)-5-chloro-2-((5-(methylsulfonyl)pyridin-3-yl)methoxy)benzyl)piperidine-2-carboxylic Acid]: the IC50 was in the range of 0.21 to 10 nM. In the case of `COC(=O)[C@@H]1CCN(CCCOc2cccc(-c3cccc(COc4cc(OCc5cncc(S(C)(=O)=O)c5)c(CN[C@](C)(CO)C(=O)O)cc4Cl)c3C)c2C)C1` [Example 1082, (R)-2-((5-chloro-4-((3′-(3-((R)-3-(methoxycarbonyl)pyrrolidin-1-yl)propoxy)-2,2′-dimethyl-[1,1′-biphenyl]-3-yl)methoxy)-2-((5-(methylsulfonyl)pyridin-3-yl)methoxy)benzyl)amino)-3-hydroxy-2-methylpropanoic Acid] it was 0.21 to 10 nM. Consider `Cc1c(COc2cc(OCc3cncc(S(C)(=O)=O)c3)c(CN[C@](C)(CO)C(=O)O)cc2Cl)cccc1-c1cccc(OCCCN2CC[C@@H](C(=O)O)C2)c1C` [Example 1083, (R)-1-(3-((3′-((4-((((R)-2-carboxy-1-hydroxypropan-2-yl)amino)methyl)-2-chloro-5-((5-(methylsulfonyl)pyridin-3-yl)methoxy)phenoxy)methyl)-2,2′-dimethyl-[1,1′-biphenyl]-3-yl)oxy)propyl)pyrrolidine-3-carboxylic Acid], for which the half-inhibitory concentration (IC50) was 0.21 to 10 nM. In the case of `Cc1c(COc2cc(OCc3cncc(S(C)(=O)=O)c3)c(CN3CCCC[C@H]3C(=O)O)cc2Cl)cccc1-c1cccc(OCCCN2CC[C@@H](C(=O)O)C2)c1C` [Example 1084, (S)-1-(4-((3′-(3-((R)-3-carboxypyrrolidin-1-yl)propoxy)-2,2′-dimethyl-[1,1′-biphenyl]-3-yl)methoxy)-5-chloro-2-((5-(methylsulfonyl)pyridin-3-yl)methoxy)benzyl)piperidine-2-carboxylic Acid] it was 0.21 to 10 nM; in that of `Cc1c(COc2cc(OCc3cncc(C#N)c3)c(CN3CCCC[C@H]3C(=O)O)cc2Cl)cccc1-c1cccc(OCCCN2C[C@H](O)C[C@H]2C(N)=O)c1Cl` [Example 1085, (S)-1-(4-((3′-(3-((2S,4R)-2-carbamoyl-4-hydroxypyrrolidin-1-yl)propoxy)-2′-chloro-2-methyl-[1,1′-biphenyl]-3-yl)methoxy)-5-chloro-2-((5-cyanopyridin-3-yl)methoxy)benzyl)piperidine-2-carboxylic Acid], 0.21 to 10 nM. In the case of `Cc1c(COc2cc(OCc3cncc(C#N)c3)c(CN[C@](C)(CO)C(=O)O)cc2Cl)cccc1-c1cccc(OCCCN2C[C@H](O)C[C@H]2C(N)=O)c1Cl` [Example 1086, (R)-2-((4-((3′-(3-((2S,4R)-2-carbamoyl-4-hydroxypyrrolidin-1-yl)propoxy)-2′-chloro-2-methyl-[1,1′-biphenyl]-3-yl)methoxy)-5-chloro-2-((5-cyanopyridin-3-yl)methoxy)benzyl)amino)-3-hydroxy-2-methylpropanoic Acid] it was 0.21 to 10 nM.

For orientation: IC50 means the concentration needed to halve the response being measured.
